Tests used:
[1] = molecular target: GCN2 kinase (Homo sapiens, UniProt Q9P2K8); assay: GCN2 enzyme inhibition assay (Transcreener ADP2 fluorescence polarization); type: biochemical; settings: 280 μM ATP
How it was run: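 Kinase activity is followed as ADP formation, measured by fluorescence polarization, using 4 nM enzyme with 280 μM ATP and 200 μM (RS)7 peptide at pH 7.5 and 25 °C for 1 h. Values come from a non-linear tight-binding fit.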

[2] = molecular target: intracellular GCN2 (phosphorylation of the GCN2 substrate eIF2α) (Homo sapiens, UniProt Q9P2K8); assay: GCN2 cellular inhibition assay (AlphaScreen SureFire P-eIF2α Ser51, borrelidin-treated U2OS cells); type: cell-based; settings: biomarker assay, phosphorylated eIF2α Ser51 in borrelidin-treated U2OS cells
Chain of intracellular GCN2 (phosphorylation of the GCN2 substrate eIF2α) (Q9P2K8 whole entry): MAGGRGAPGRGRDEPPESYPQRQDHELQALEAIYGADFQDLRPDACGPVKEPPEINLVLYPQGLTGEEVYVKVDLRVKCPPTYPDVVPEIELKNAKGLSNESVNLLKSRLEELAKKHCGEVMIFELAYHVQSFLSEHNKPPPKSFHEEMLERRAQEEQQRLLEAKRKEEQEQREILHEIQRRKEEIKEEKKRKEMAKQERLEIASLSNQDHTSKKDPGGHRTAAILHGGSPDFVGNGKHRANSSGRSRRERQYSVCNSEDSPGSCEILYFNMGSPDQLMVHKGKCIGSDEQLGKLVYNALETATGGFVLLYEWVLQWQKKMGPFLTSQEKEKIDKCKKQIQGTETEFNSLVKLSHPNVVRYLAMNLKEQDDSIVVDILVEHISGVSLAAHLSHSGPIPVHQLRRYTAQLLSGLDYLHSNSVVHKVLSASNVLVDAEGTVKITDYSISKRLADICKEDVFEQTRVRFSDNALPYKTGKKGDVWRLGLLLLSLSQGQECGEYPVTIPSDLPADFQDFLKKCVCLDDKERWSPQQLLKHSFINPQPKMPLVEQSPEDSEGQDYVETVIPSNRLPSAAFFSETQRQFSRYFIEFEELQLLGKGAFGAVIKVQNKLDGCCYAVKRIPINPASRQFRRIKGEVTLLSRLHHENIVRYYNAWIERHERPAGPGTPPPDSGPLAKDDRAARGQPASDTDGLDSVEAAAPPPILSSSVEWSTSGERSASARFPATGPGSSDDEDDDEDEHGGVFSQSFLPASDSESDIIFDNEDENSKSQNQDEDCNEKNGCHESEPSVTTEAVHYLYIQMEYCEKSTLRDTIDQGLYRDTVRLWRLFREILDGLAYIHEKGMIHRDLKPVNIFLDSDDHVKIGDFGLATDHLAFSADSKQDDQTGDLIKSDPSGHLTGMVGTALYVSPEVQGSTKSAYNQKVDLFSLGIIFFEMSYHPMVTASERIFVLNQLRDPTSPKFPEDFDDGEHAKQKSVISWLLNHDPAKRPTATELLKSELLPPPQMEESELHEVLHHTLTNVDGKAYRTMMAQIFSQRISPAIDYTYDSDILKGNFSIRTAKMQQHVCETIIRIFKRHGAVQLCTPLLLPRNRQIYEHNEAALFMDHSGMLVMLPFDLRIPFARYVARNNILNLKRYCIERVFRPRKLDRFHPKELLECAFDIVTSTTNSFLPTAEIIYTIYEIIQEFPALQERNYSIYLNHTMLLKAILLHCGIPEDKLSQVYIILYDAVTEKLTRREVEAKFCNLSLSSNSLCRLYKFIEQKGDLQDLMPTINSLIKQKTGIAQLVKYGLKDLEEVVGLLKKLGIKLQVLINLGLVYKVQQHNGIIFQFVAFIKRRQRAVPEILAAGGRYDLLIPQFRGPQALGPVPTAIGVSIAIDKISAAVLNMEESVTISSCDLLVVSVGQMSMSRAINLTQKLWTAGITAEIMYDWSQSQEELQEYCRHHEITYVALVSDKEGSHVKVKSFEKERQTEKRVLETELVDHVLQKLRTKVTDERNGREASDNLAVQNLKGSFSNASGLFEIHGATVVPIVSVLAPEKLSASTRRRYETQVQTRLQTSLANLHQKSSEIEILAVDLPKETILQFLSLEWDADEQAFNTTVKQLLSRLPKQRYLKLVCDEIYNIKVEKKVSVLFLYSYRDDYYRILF
How it was run: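 Phospho-eIF2α (Ser51) in lysates was quantified by AlphaScreen SureFire after a 1 h, 37 °C treatment of U2OS cells with 10 μM borrelidin and compound at 4-fold dilutions starting from 40 μM final. Inhibition expressed in percent against wells stimulated by borrelidin alone.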

[3] = Enzyme activity for compounds of Formula IV, Ki(app), 25° C.
[4] = compounds of Formula II, 4 nM GCN2 kinase

Chain of GCN2 kinase (Q9P2K8 whole entry): as above

| SMILES | Ki [1, 3] [nM] | IC50 ([2]; compounds of Formula IV) [nM] | Ki [1, 4] [nM] | IC50 ([2]; compounds of Formula II) [nM] |
| --- | --- | --- | --- | --- |
| OC1CCCN(c2ccnc(-c3cnc4cnc(C(F)(F)F)cn34)n2)C1 (stereo not shown) [IV-437, 1-(2-(6-(Trifluoromethyl)imidazo[1,2-a]pyrazin-3-yl)pyrimidin-4-yl)piperidin-3-ol] | 100 to 1000 | > 5000 |  |  |
| CC1CCC(CNS(C)(=O)=O)CN1c1cc(-c2cnc3ccc(C(F)F)nn23)ncn1 (stereo not shown) [II-245, N-((1-(6-(6-(Difluoromethyl)imidazo[1,2-b]pyridazin-3-yl)pyrimidin-4-yl)-6-methylpiperidin-3-yl)methyl)methanesulfonamide] |  |  | 10 to 1000 | > 5000 |
| Cc1nc(C2CCCN(c3ccnc(-c4cnc5cnc(Br)cn45)n3)C2)c[nH]1 (single isomer, unassigned) [IV-374, 6-Bromo-3-(4-(3-(2-methyl-1H-imidazol-4-yl)piperidin-1-yl)pyrimidin-2-yl)imidazo[1,2-a]pyrazine] | 10 to 100 | 500 to 5000 |  |  |
| CS(=O)(=O)NCC1CCN(c2cc(-c3cnc4ccc(C(F)F)nn34)ccn2)C1 (stereo not shown) [II-123, N-((1-(4-(6-(Difluoromethyl)imidazo[1,2-b]pyridazin-3-yl)pyridin-2-yl)pyrrolidin-3-yl)methyl)methanesulfonamide] |  |  | 10 to 1000 | 500 to 5000 |
| O=C(N[C@H]1CCCN(c2ccnc(-c3cnc4cnc(C(F)(F)F)cn34)n2)C1)c1cn[nH]c1 [IV-733] | > 1000 | > 5000 |  |  |
| CS(C)(=O)=N[C@@H]1C[C@@H](c2cn[nH]c2)CN(c2ccnc(-c3cnc4cnc(C(F)(F)F)cn34)n2)C1 (racemic) [IV-394] | 100 to 1000 | > 5000 |  |  |
| CC(=O)N1CCCC(c2cc(-c3cnc4ccc(C(F)F)nn34)ncn2)C1 (stereo not shown) [II-222, 1-(3-(6-(6-(Difluoromethyl)imidazo[12-b]pyridazin-3-yl)pyrimidin-4-yl)piperidin-1-yl)ethan-1-one] |  |  | 10 to 1000 | 500 to 5000 |
| CC(=O)N1CCN(c2cc(-c3cnc4ccc(CO)nn34)ccn2)CC1 [II-185, 1-(4-(4-(6-(Hydroxymethyl)imidazo[1,2-b]pyridazin-3-yl)pyridin-2-yl)piperazin-1-yl)ethanone] |  |  | 10 to 1000 | > 5000 |
| FC(F)(F)c1cn2c(-c3nccc(N4CCCC(c5ncco5)C4)n3)cnc2cn1 (stereo not shown) [IV-686, 2-(1-(2-(6-(Trifluoromethyl)imidazo[1,2-a]pyrazin-3-yl)pyrimidin-4-yl)piperidin-3-yl)oxazole] | 100 to 1000 | 500 to 5000 |  |  |
| CC1CC(CS(C)(=N)=O)C(C)N(c2ccnc(-c3cnc4cnc(C(F)F)cn34)n2)C1 (single isomer, unassigned) [IV-366, ((1-(2-(6-(Difluoromethyl)imidazo[1,2-a]pyrazin-3-yl)pyrimidin-4-yl)-2,5-dimethylpiperidin-3-yl)methyl)(imino)(methyl)-λ^6-sulfanone] | 100 to 1000 | > 5000 |  |  |
| CCN1CCN(c2cc(-c3cnc4ccc(C(F)F)nn34)ncn2)C(C)C1CNS(C)(=O)=O (stereo not shown) [II-340, N-((4-(6-(6-(Difluoromethyl)imidazo[1,2-b]pyridazin-3-yl)pyrimidin-4-yl)-1-ethyl-3-methylpiperazin-2-yl)methyl)methanesulfonamide] |  |  | 10 to 1000 | < 500 |
| CC1CN(c2cc(OCCO)nc(-c3cnc4cnc(C(F)(F)F)cn34)n2)C(C)C(c2cn[nH]c2)N1 (stereo not shown) [IV-640, 2-((6-(2,5-Dimethyl-3-(1H-pyrazol-4-yl)piperazin-1-yl)-2-(6-(trifluoromethyl)imidazo[1,2-a]pyrazin-3-yl)pyrimidin-4-yl)oxy)ethan-1-ol] | < 10 | 500 to 5000 |  |  |
| CC1C(c2cn[nH]c2)NCCN1c1ccnc(-c2cnc3cnc(Br)cn23)n1 (single isomer, unassigned) [IV-413, 6-Bromo-3-(4-(2-methyl-3-(1H-pyrazol-4-yl)piperazin-1-yl)pyrimidin-2-yl)imidazo[1,2-a]pyrazine] | 10 to 100 | 500 to 5000 |  |  |
| CC1CN(c2ccnc(-c3cnc4cnc(C#N)cn34)n2)C(C)C(c2cn[nH]c2)N1 (stereo not shown) [IV-305, 3-(4-(2,5-Dimethyl-3-(1H-pyrazol-4-yl)piperazin-1-yl)pyrimidin-2-yl)imidazo[1,2-a]pyrazine-6-carbonitrile] | < 10 | 500 to 5000 |  |  |

Source: patent US10988477B2 (Merck Patent GmbH, priority 2018, dated 2021)
